How the values were obtained:
[1] = post-menopausal use of estrogen alone, median follow up 11.8 years; CI 0.62-0.95, p 0.02; cited from earlier work
[2] = tested on: MCF10A KRAS-variant+/- (MT) cell lines; test: Anchorage independent growth (soft agar colony formation) as measure of transformation; format: cell-based, human; details: for level of transformation in anchorage independent growth assay: KRAS-variant (L1 and L2) versus parental (WT) MCF10A lines, comparison of anti-estrogen treatments and estrogen; for fold increased colony formation rate: KRAS-variant MCF10A lines, grown without EGF
Procedure: Anchorage independent growth was assessed as described previously (Sweasy et al. (2005) PNAS 102:14350-5). After thawing and growing cells until confluence in EGF supplemented media (20 ng/ml), cells were plated into conditions of study for two passages. For estrogen depletion experiments phenol red free DMEM/F12 medium (Invitrogen) and 5% charcoal-stripped horse serum (Thermo Fisher) were used, and Tamoxifen or estrogen was added to a final concentration of 1 μM after the first passage, as appropriate. To plate, 100 μl of MCF10A (WT) or (MT) cells at a density of 400,000 cells/ml were mixed with 2 ml of media for the condition under study containing 2 ml 0.7% noble agar (USB). 1 ml of the cell mixture was added to 1 ml of 1.0% noble agar in a well of a 6-well dish. Cells were fed twice weekly by layering on a 50:50 mixture of media with 0.7% agar for 2 weeks, followed by only media for two-three additional weeks. The number of colonies present in each of ten microscope fields per well from a total of 3 wells per experiment was counted to evaluate transformation and is reported as an average of the 2 separate MT lines.
Next, WT and MT lines were plated in soft agar to test for transformation, as measured by anchorage independent growth. […] The impact of estrogen withdrawal on this transformation was next evaluated by the use of charcoal stripped serum, tamoxifen, or a combination of the two. […] These findings biologically confirm wide spread transformation in normal breast epithelium with acute estrogen withdrawal in breast cells with the KRAS-variant.
Next, different forms of estrogen inhibitors were tested to determine their effects on transformation in the presence of the KRAS-variant. Tamoxifen (ER antagonist in breast), anastrozole (aromatase inhibitor, inhibiting estrogen synthesis), and fulvestrant (a complete ER antagonist) were administered to parental (WT) or two KRAS-variant (L1 and L2) MCF10A cell lines and anchorage independent growth was assessed using the colony formation assay described above.

Row | Molecule | breast cancer incidence versus placebo, HR [1] | level of transformation in anchorage independent growth assay ([2]; FIG. 5) | level of transformation in anchorage independent growth assay ([2]; FIG. 5, listed as Estrogen) | transformation (colony formation) after return of estrogen to charcoal-stripped media ([2]; KRAS-variant MT cell lines, charcoal-stripped media, estrogen 1 μM, p=0.018, FIG. 4) | colonies formed relative to the anastrozole or fulvestrant treatments ([2]; KRAS-variant (L1 and L2) MCF10A lines, FIG. 5) [times] | fold increased colony formation rate ([2]; Tamoxifen combined with charcoal stripped media) [fold] | fold increased colony formation rate ([2]; in the presence of Tamoxifen (1 μM final)) [fold]
1 | estrogen | 0.77 | prevented transformation | prevents transformation | decreased transformation |  |  | 
2 | CC/C(=C(\c1ccccc1)c1ccc(OCCN(C)C)cc1)c1ccccc1 [Tamoxifen] |  | highest level of transformation |  |  | ~10 | 7.9 | 2

— patent US20190307770A1, “METHODS FOR TREATING OR PREVENTING CANCER IN A KRAS-VARIANT PATIENT AND FOR […] OF […] PRIMARY BREAST TUMORS” (MIRADX, priority 2014, published 2019)
